What was measured:
Escherichia coli = test: Antimicrobial study against Escherichia coli (gram-negative bacteria); assay type: cell-based; details: methylolated C8/10 10,800 ppm, methylolated lauric 11,400 ppm, DMDMH 3,000 ppm, others 14,700 ppm
Experimental: (§1) The antimicrobial properties of typical esters (I) and (Ia) were tested by minimum inhibitory concentration (MIC) tests, along with certain known substances, against […] strains of organisms: a mold, Aspergillus niger; a gram-positive bacteria, Staphylococcus aureus; and two gram-negative bacteria, Escherichia coli and Pseudomonas aeruginosa. […] These tests were used to determine any effect on biocidal activity of the varying chain length of the ester.
(§2) The known substances, on which identical tests were also performed, included the biocide, dimethyloldimethylhydantoin or DMDMH (iv), and a series of three surfactants, i.e., the three common emulsifiers, sodium lauryl sulfate (SLS); ethylene glycol distearate (EGDS), in the form of the commercial product PEGOSPERSE 50 DS (Lonza Inc.); and polyoxyethylene 20 sorbitan monoleate (POE 20 SMO), in the form of the commercial product GLYCOSPERSE 0 20 (Lonza Inc.).
(§3) The tests entailed contaminating a preexisting micro-colony with a known quantity (ppm, concentration) of test material. Each colony was then examined periodically over a one week period. […] A test was deemed non-efficacious when there was no decrease in colony size. In an effort to avoid any possible solvent effect, the micro-study was conducted in a totally aqueous solvent system without use of any other solvent.

Aspergillus niger = test: Antimicrobial study against Aspergillus niger (mold); assay type: cell-based; details: methylolated C8/10 10,800 ppm, methylolated lauric 11,400 ppm, DMDMH 3,000 ppm, others 14,700 ppm
Experimental: as §1, §2, §3

[1] = Surface tension tests (cmc, Gibbs' Free Energy of Micellation); assay type: physicochemical
Experimental: Surface tension tests were conducted as to the relationship between the fatty acid aliphatic chain length, i.e. number of carbon atoms, in the esters (I), and their performance as surfactants. The length of the hydrophobic chain of a molecule is considered the major contributing factor to the critical micelle concentration (cmc) value of a surfactant. This value is obtained from surface tension measurement data. The lower the cmc, the more readily the material will form micelles.
The Gibbs' Free Energy of Micellation (ΔG°cmc) and the ΔG°cmc per --CH2 -- can be determined if the cmc is known.
The ΔG°cmc is a calculated value obtained by Equation 1.
ΔG°cmc =2.303RT(log cmc-log[water]) (Eq. 1)
The ΔG°cmc per --CH2 -- value is obtained from the slope of the straight line curve formed from a plot of ΔG°cmc versus the number of carbon atoms in the lipophilic chain.
The cmc values were based on surface tension tests conducted with a tensiometer (Cenco-DuNoug Precision Model #70535, direct reading model) to determine the upward surface tension at the liquid-air surface of the test ester/water solution. The methods used to calibrate the tensiometer, calculate the "correction factor" (used to correct for the difference between the apparent and true surface tension), and collect data, were conducted as described in the manual for the instrument. Sodium lauryl sulfate (SLS) and distilled water were used as reference samples.
On completing data collection, plots of the surface tension (dynes) versus -log of the concentration (mols/liter) were prepared, using only the "corrected" surface tension value, obtained by applying the noted "correction factor" in each case. The […] was found by multiplying the "apparent" surface tension by a calculated correction factor.
The critical micelle concentration (cmc) for each sample was determined by locating the point in the curve where the surface tension first begins to level off, per a known procedure.

[2] = Solubilities of esters in typical solvents / appearance of samples in water; assay type: physicochemical; details: 25° C.
Pseudomonas aeruginosa = test: Antimicrobial study against Pseudomonas aeruginosa (gram-negative bacteria); assay type: cell-based; details: methylolated C8/10 10,800 ppm, methylolated lauric 11,400 ppm, DMDMH 3,000 ppm, others 14,700 ppm
Experimental: as §1, §2, §3

Staphylococcus aureus = test: Antimicrobial study against Staphylococcus aureus (gram-positive bacteria); assay type: cell-based; details: methylolated C8/10 10,800 ppm, methylolated lauric 11,400 ppm, DMDMH 3,000 ppm, others 14,700 ppm
Experimental: as §1, §2, §3

[3] = Dispersion stability tests; assay type: physicochemical; details: for stability of dispersions in water: 0.5%, and even 5% active levels
Experimental: The dispersion stability tests were performed on the esters (I) to determine the extent each was able to disperse itself in an aqueous medium.
The dispersions were prepared by homogenizing a mixture of the test ester and water, after which repeated examination of the sample was effected for a period of 55 days. This test method is fully indicative of the dispersibility of these esters (I).
The dispersion tests were performed with the esters at 0.5% and 5.0% active levels in water, prepared by combining the test ester with distilled water, and homogenizing the mixture for one to three minutes, via a Kika-Werk Ultra-Turrax S D-45 homogenizer. The dispersions were poured into an eight ounce flint jar, capped, and periodically examined over a 55 day period.

[4] = Physical properties of methylolated MHEDMH esters (I): viscosity; assay type: physicochemical; details: at 25° C.
[5] = among esters (I) examined, Table 6

Row | Compound | Colony Count (Escherichia coli; Day 0) | Colony Count (Escherichia coli; Day 1) | Colony Count (Escherichia coli; Day 2) | Colony Count (Escherichia coli; Day 3) | Colony Count (Escherichia coli; Day 7) | Colony Count (Aspergillus niger; Day 0) | Colony Count (Aspergillus niger; Day 1) | Colony Count (Aspergillus niger; Day 2) | Colony Count (Aspergillus niger; Day 3) | Colony Count (Aspergillus niger; Day 7) | surface active properties [1] | Solubility in isopropyl alcohol [2] | Solubility in mineral oil [2] | Colony Count (Pseudomonas aeruginosa; Day 0) | Colony Count (Pseudomonas aeruginosa; Day 1) | Colony Count (Pseudomonas aeruginosa; Day 2) | Colony Count (Pseudomonas aeruginosa; Day 3) | Colony Count (Pseudomonas aeruginosa; Day 7) | Colony Count (Staphylococcus aureus; Day 0) | Colony Count (Staphylococcus aureus; Day 1) | also measured
1 | CCCCCCCCCCCC(=O)OCCN1C(=O)N(CO)C(=O)C1(C)C [Methylolated Lauric Ester, 2-(3-hydroxymethyl-5,5-dimethyl-1,3-diazacyclopentane-2,4-dion-1-yl)-ethylester of lauric acid] | TNC | TNC | < 0.01 × 1,000 | < 0.01 × 1,000 | < 0.01 × 1,000 | 400 × 1,000 | 2 × 1,000 | < 0.01 × 1,000 | < 0.01 × 1,000 | < 0.01 × 1,000 | particularly favorable surface active properties | S (>10 g/100 g Solvent) | S (>10 g/100 g Solvent) | TNC | < 0.01 × 1,000 | < 0.01 × 1,000 | < 0.01 × 1,000 | < 0.01 × 1,000 | TNC | 4,000 × 1,000 | Colony Count (Staphylococcus aureus; Day 2): < 0.01 × 1,000; Colony Count (Staphylococcus aureus; Day 3): < 0.01 × 1,000; Colony Count (Staphylococcus aureus; Day 7): < 0.01 × 1,000; dispersion quality, decreasing order of rank [3]: isostearate>oleate>cocoate>laurate>C8/10ester>>stearate>acetate; stability of dispersions in water [3]: stable for weeks
2 | CCCCCCCC/C=C\CCCCCCCC(=O)OCCN1C(=O)N(CO)C(=O)C1(C)C [Methylolated Oleic Ester, 2-(3-hydroxymethyl-5,5-dimethyl-1,3-diazacyclopentane-2,4-dion-1-yl)-ethylester of oleic acid] | 4,000 × 1,000 | < 0.01 × 1,000 | < 0.01 × 1,000 | < 0.01 × 1,000 | < 0.01 × 1,000 | 2,000 × 1,000 | 0.5 × 1,000 | < 0.01 × 1,000 | < 0.01 × 1,000 | < 0.01 × 1,000 | particularly favorable surface active properties | S (>10 g/100 g Solvent) | S (>10 g/100 g Solvent) | TNC | < 0.01 × 1,000 | < 0.01 × 1,000 | < 0.01 × 1,000 | < 0.01 × 1,000 | TNC | 4,200 × 1,000 | Viscosity [4]: 501 cts; cmc, relative rank [1, 5]: the lowest cmc values; ΔG°cmc, relative rank [1, 5]: the lowest ΔG°cmc values; ΔG°cmc (Gibbs' Free Energy of Micellation) ([1]; calculated from cmc by Eq. 1, T=298° K.): -6.962 kcal/mol; cmc (critical micelle concentration) ([1]; ester/water solution): 4.0 × 10^-4 mol dm^-3; Colony Count (Staphylococcus aureus; Day 2): < 0.01 × 1,000; Colony Count (Staphylococcus aureus; Day 3): < 0.01 × 1,000; Colony Count (Staphylococcus aureus; Day 7): < 0.01 × 1,000; dispersion quality, decreasing order of rank [3]: isostearate>oleate>cocoate>laurate>C8/10ester>>stearate>acetate; stability of dispersions in water [3]: stable for weeks
